The results in this text go back to US4168317A, “Amino derivatives of 4-hydroxy-1,2-benzisothiazole” (BASF Aktiengesellschaft, priority 1977, dated 1979).

SMILES strings stand for the structures. Counter-ions that a name gives are not always drawn.

Data set [1] concerns the target T1, β2-receptors on the blood vessels (Rattus norvegicus, UniProt P10608).
T1 construct: was tested on rats, weighing 230-280 g, under urethane narcosis; from tissue; host or cells: blood vessels in the living rat under urethane narcosis (in vivo)
Briefly: β2-sympatholytic action: inhibition of Isoproterenol blood pressure reduction, rats under urethane narcosis. It is filed as in vivo. The following applies: for β2-Sympatholytic action R.A. (relative activity): Propranolol = 1.00, intravenous; for Q: quotient defined in footnote 6 (drawing 8), cardioselectivity, β2 versus β1 dose; for ED50: rat, iv, read-out: β2-Sympatholytic action ED 50 (dose which inhibits the Isoproterenol blood pressure reduction by 50%).

A short description of another data set: in vivo. The following applies: mouse; for LD50 at 24 h: ip. The method, then:
The acute toxicity was determined on groups of 10 or 20 female Swiss mice weighing 20-26 g, the compounds being administered intraperitoneally.

A further data set deals with T2, cardiac β1-receptors (Rattus norvegicus, UniProt P18090).
T2 construct: in pithed rats (Sprague-Dawley, Mus rattus; weight 230-280 g) causes increases in pulse rate; from tissue; host or cells: heart in the living pithed Sprague-Dawley rat (in vivo)
The experiment in a line: β1-sympatholytic action: inhibition of Isoproterenol tachycardia, pithed rats. It is filed as in vivo, rats (Sprague-Dawley. The following applies: for β1-Sympatholytic action R.A. (relative activity): Propranolol = 1.00, pithed rats, intravenous; for ED50: rat, iv, 5 min, read-out: β1-Sympatholytic action ED 50 (dose which inhibits the Isoproterenol tachycardia by 50%); for β1-sympatholytic activity greater than that of Propranolol / cardiac β1-receptors blocked at doses lower than those required to block β2-receptors: rats.

T1 sequence (P10608 whole entry): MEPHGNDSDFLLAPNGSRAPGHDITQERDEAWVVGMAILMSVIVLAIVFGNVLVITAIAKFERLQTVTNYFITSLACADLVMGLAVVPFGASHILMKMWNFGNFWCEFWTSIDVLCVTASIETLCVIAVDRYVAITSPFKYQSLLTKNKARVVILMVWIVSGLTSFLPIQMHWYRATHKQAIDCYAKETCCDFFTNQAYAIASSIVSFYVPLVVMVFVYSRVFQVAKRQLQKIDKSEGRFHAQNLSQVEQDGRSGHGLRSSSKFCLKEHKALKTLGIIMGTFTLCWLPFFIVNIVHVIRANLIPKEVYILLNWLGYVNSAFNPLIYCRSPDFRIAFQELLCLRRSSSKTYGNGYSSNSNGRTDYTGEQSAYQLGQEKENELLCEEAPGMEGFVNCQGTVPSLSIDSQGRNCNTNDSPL
T2 sequence (P18090 whole entry): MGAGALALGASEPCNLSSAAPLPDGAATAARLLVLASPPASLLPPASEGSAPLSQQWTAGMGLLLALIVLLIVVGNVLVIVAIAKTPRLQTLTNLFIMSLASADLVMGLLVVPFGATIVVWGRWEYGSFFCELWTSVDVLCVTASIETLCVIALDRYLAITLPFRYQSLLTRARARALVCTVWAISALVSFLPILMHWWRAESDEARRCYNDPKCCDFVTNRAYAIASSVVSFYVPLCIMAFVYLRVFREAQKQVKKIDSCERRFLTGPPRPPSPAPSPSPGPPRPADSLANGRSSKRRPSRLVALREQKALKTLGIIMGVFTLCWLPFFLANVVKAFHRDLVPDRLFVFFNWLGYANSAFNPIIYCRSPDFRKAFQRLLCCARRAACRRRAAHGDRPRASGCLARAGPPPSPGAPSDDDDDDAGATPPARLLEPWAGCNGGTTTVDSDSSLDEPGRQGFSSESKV

On to `CCC(C)NCC(O)COc1cccc2sncc12` (stereo not drawn) [Example 14, 4-(2-Hydroxy-3-sec.-butylamino-propoxy)-1,2-benzisothiazole], for which the “β2-Sympatholytic action R.A. (relative activity)” value in data set [1] (rats under urethane narcosis) was found to be 1.08. For the same molecule, in data set [1], the Q worked out at 6.93 and the ED50 worked out at 10.6 µg/kg. For the same molecule, in the data set “in vivo”, the “Therapeutic range, relative” value was found to be 7.18; the selectivity ratio amounted to 63000; the LD50 at 24 h is 96400 µg/kg. Besides, at cardiac β1-receptors, the “β1-Sympatholytic action R.A. (relative activity)” value is on record as 8.04, the ED50 was found to be 1.53 µg/kg and the “β1-sympatholytic activity greater than that of Propranolol” value was 8 times.
As to `CCC(C)(CC)NCC(O)COc1cccc2sncc12` (stereo not drawn) [Example 16, 4-[2-Hydroxy-3-(3-methyl-pentyl-3-amino)-propoxy]-1,2-benzisothiazole], the “β2-Sympatholytic action R.A. (relative activity)” value in data set [1] (rats under urethane narcosis) is reported as 0.94. Moreover, in data set [1], the Q was 3.69 and the ED50 turned out to be 12.1 µg/kg. Besides, in the data set “in vivo”, the “Therapeutic range, relative” value was 4.44; the selectivity ratio is 39000; the LD50 at 24 h was 128000 µg/kg. For the same molecule, at cardiac β1-receptors, the “β1-Sympatholytic action R.A. (relative activity)” value was 3.75 and the ED50 worked out at 3.28 µg/kg.
With `CC(C)NCC(O)c1ccc(O)c(O)c1` (stereo not drawn) [Isoproterenol, reference compound], the “reduction of mean pressure of the carotid artery” value in data set [1] (Isoproterenol 0.215 μg/kg intravenously, rats under urethane narcosis, average) amounted to 30%.
`C#CC(C)(C)NCC(O)COc1cccc2sncc12` (stereo not drawn) [Example 27, 4-[2-Hydroxy-3-(2-methyl-but-3-ynyl-2-amino)-propoxy]-1,2-benzisothiazole]: the “β2-Sympatholytic action R.A. (relative activity)” value in data set [1] (rats under urethane narcosis) is listed as 1.98. In data set [1], the Q stood at 2.50 and the ED50 amounted to 5.75 µg/kg. Besides, in “in vivo”, the “Therapeutic range, relative” value was 9.11; the selectivity ratio came out at 80000; the LD50 at 24 h is 184000 µg/kg. Further, at cardiac β1-receptors, the “β1-Sympatholytic action R.A. (relative activity)” value came to 5.35 and the ED50 was 2.3 µg/kg.
For the molecule `COCC(C)NCC(O)COc1cccc2sncc12` (stereo not drawn) [Example 29, 4-[2-Hydroxy-3-(1-methoxy-propyl-2-amino)-propoxy]-1,2-benzisothiazole], the “β2-Sympatholytic action R.A. (relative activity)” value in data set [1] (rats under urethane narcosis) was 0.26. Moreover, in data set [1], the Q is listed as 8.90 and the ED50 is 44 µg/kg. Moreover, in the data set “in vivo”, the “Therapeutic range, relative” value was 3.11; the selectivity ratio was determined as 27300; the LD50 at 24 h stood at 135000 µg/kg. Besides, on cardiac β1-receptors, the “β1-Sympatholytic action R.A. (relative activity)” value turned out to be 2.48, the ED50 stood at 4.95 µg/kg and the “β1-sympatholytic activity greater than that of Propranolol” value was 2.5 times.
Regarding `CC(C)NCC(O)COc1cccc2sncc12` (stereo not drawn) [Example 1, 4-(2-hydroxy-3-isopropylaminopropoxy)-1,2-benzisothiazole hydrochloride], the “β2-Sympatholytic action R.A. (relative activity)” value in data set [1] (rats under urethane narcosis) came out at 2.71. In data set [1], the Q is listed as 2.21 and the ED50 was determined as 4.2 µg/kg. Moreover, in the data set “in vivo”, the “Therapeutic range, absolute” value is 32,700; the “Therapeutic range, relative” value was determined as 3.72; the LD50 at 24 h turned out to be 62100 µg/kg. Besides, on cardiac β1-receptors, the “β1-Sympatholytic action R.A. (relative activity)” value was found to be 6.47, the ED50 was found to be 1.9 µg/kg and the “cardiac β1-receptors blocked at doses lower than those required to block β2-receptors” value came out at 2 times.
For `CC(C)(C)NCC(O)COc1cccc2sncc12` (stereo not drawn) [Example 2, 4-(2-hydroxy-3-tert.-butylamino-propoxy)-1,2-benzisothiazole hydrochloride], the “β2-Sympatholytic action R.A. (relative activity)” value in data set [1] (rats under urethane narcosis) is listed as 2.84. For the same molecule, in data set [1], the Q was 2.47 and the ED50 is 4.02 µg/kg. For the same molecule, in the data set “in vivo”, the “Therapeutic range, absolute” value is recorded as 94,500; the “Therapeutic range, relative” value is given as 10.76; the LD50 at 24 h stood at 154000 µg/kg. Further, at cardiac β1-receptors, the “β1-Sympatholytic action R.A. (relative activity)” value is on record as 7.55 and the ED50 was 1.63 µg/kg.
As for `CCCC(C)NCC(O)COc1cccc2sncc12` (stereo not drawn) [Example 35, 4-[2-Hydroxy-3-(pentyl-2-amino)-propoxy]-1,2-benziso-thiazole], the “β2-Sympatholytic action R.A. (relative activity)” value in data set [1] (rats under urethane narcosis) came to 0.42. For the same molecule, in data set [1], the Q is 10.70 and the ED50 was 27 µg/kg. Moreover, in the data set “in vivo”, the “Therapeutic range, relative” value is 2.72; the selectivity ratio was found to be 23900; the LD50 at 24 h stood at 60300 µg/kg. Moreover, at cardiac β1-receptors, the “β1-Sympatholytic action R.A. (relative activity)” value came to 4.88, the ED50 turned out to be 2.52 µg/kg and the “cardiac β1-receptors blocked at doses lower than those required to block β2-receptors” value is 11 times.
With `CCC(C)(C)NCC(O)COc1cccc2sncc12` (stereo not drawn) [Example 15, 4-[2-Hydroxy-3-(2-methyl-butyl-2-amino)-propoxy]-1,2-benzisothiazole], the “β2-Sympatholytic action R.A. (relative activity)” value in data set [1] (rats under urethane narcosis) worked out at 1.38. Further, in data set [1], the Q turned out to be 4.48 and the ED50 was determined as 8.24 µg/kg. Besides, in the data set “in vivo”, the “Therapeutic range, relative” value was determined as 8.92; the selectivity ratio was found to be 78300; the LD50 at 24 h turned out to be 144000 µg/kg. Also, on cardiac β1-receptors, the “β1-Sympatholytic action R.A. (relative activity)” value amounted to 6.68 and the ED50 stood at 1.84 µg/kg.

As a reminder, the LD50 is the dose at which mortality reaches 50%. Read a high LD50 as lower toxicity.
